{"source": "patent US20220175829A1", "about": "“Antimicrobial Compositions” (Matoke Holdings Limited, priority 2019, published 2022)", "origin": "cited, not measured here", "details": "20° C. and 1 atm"}
{"smiles": "O=C(CO)[C@@H](O)[C@H](O)[C@H](O)CO", "note": "[Fructose]", "values": [{"measurement": "solubility", "result": "about 375 g/100 g water"}]}
